Experimental data taken from ChEMBL document CHEMBL6083213, “Discovery of benzimidazole-2-amide BNZ-111 as new tubulin inhibitor” (Bioorg Med Chem Lett, 2024).
In brackets after ≈: the same amount, converted by molar mass. Activity calls are given as the source filed them. The calls are words filed in the database; no cut-off is given here.

Key:
A549 [1] = assay: Anticancer activity against human A549 cells assessed as inhibition of cell growth at 1 uM incubated for 72 hrs by MTT assay relative to control; format: functional
NCI-H460 [2] = assay: Anticancer activity against human NCI-H460 cells assessed as inhibition of cell growth at 1 uM incubated for 72 hrs by MTT assay relative to control; format: functional
NCI-H1299 [3] = assay: Anticancer activity against human NCI-H1299 cells assessed as inhibition of cell growth at 1 uM incubated for 72 hrs by MTT assay relative to control; format: functional
[4] = Half life in Sprague-Dawley rat at 2 mg/kg, iv; format: ADME, organism-based; conditions: in vivo
[5] = Clearance in Sprague-Dawley rat at 2 mg/kg, iv; format: ADME, organism-based; conditions: in vivo
[6] = Volume of distribution at steady state in Sprague-Dawley rat at 2 mg/kg, iv; format: ADME, organism-based; conditions: in vivo, read-out: Vdss
[7] = Cmax in Sprague-Dawley rat at 10 mg/kg, po; format: ADME, organism-based; conditions: in vivo
[8] = AUC in Sprague-Dawley rat at 10 mg/kg, po; format: ADME, organism-based; conditions: in vivo
[9] = Oral bioavailability in Sprague-Dawley rat at 10 mg/kg; format: ADME, organism-based; conditions: in vivo
A549 [10] = assay: Anticancer activity against human A549 cells incubated for 24; format: functional, cell-based
NCI-H460 [11] = assay: Anticancer activity against human NCI-H460 cells incubated for 24; format: functional, cell-based
NCI-H1299 [12] = assay: Anticancer activity against human NCI-H1299 cells incubated for 24; format: functional, cell-based
A2780 = assay: Anticancer activity against human A2780 cells incubated for 24; format: functional, cell-based
HEY A8 = assay: Anticancer activity against human HEY A8 cells incubated for 24; format: functional, cell-based
Vero = assay: Cytotoxicity against african green monkey Vero cells incubated for 24 hrs; format: toxicity, cell-based; conditions: chlorocebus sabaeus
HFL1 = assay: Cytotoxicity against human HFL1 cells incubated for 24 hrs; format: toxicity, cell-based; conditions: hfl1, 24 h
L929 = assay: Cytotoxicity against mouse L929 cells incubated for 24 hrs; format: toxicity, cell-based; conditions: l929, 24 h
NIH3T3 = assay: Cytotoxicity against mouse NIH3T3 cells incubated for 24 hrs; format: toxicity, cell-based; conditions: nih3t3, 24 h
CHO-K1 = assay: Cytotoxicity against CHO-K1 cells incubated for 24 hrs; format: toxicity, cell-based, Cricetulus griseus; conditions: chinese hamster, cho-k1, 24 h
[13] = Solubility of compound in 1 % DMSO-PBS buffer; format: physicochemical
[14] = Plasma protein binding in human; format: ADME, cell-free; conditions: read-out: PPB (converted)
[15] = Plasma protein binding in mouse; format: ADME, cell-free; conditions: read-out: PPB (converted)
[16] = Stability in mouse plasma assessed as parent compound remaining after 4 hrs; format: ADME, cell-free; conditions: read-out: Stability
[17] = Stability in human plasma assessed as parent compound remaining after 4 hrs; format: ADME, cell-free; conditions: read-out: Stability
[18] = Stability in rat plasma assessed as parent compound remaining after 4 hrs; format: ADME, cell-free; conditions: read-out: Stability
[19] = Microsomal stability in human liver microsomes assessed as parent compound remaining measured after 30 mins; format: ADME, Microsome; conditions: read-out: Stability
[20] = Microsomal stability in mouse liver microsomes assessed as parent compound remaining measured after 30 mins; format: ADME, Microsome; conditions: read-out: Stability
[21] = Microsomal stability in rat liver microsomes assessed as parent compound remaining measured after 30 mins; format: ADME, Microsome; conditions: read-out: Stability
hERG (KCNH2) = hERG (KCNH2) (Homo sapiens, UniProt Q12809); assay: Inhibition of hERG at 10 uM relative to control; format: toxicity
[22] = Cytotoxicity against human SKOV3.ip1 cells incubated for 24 hrs; format: toxicity, cell-based; conditions: skov3.ip1, 24 h
[23] = Cytotoxicity against human A2780/CP20 cells incubated for 24 hrs; format: toxicity, cell-based; conditions: a2780/cp20, 24 h
[24] = Cytotoxicity against human SKOV3/TR cells incubated for 24 hrs; format: toxicity, cell-based
[25] = Cytotoxicity against human HeyA8-MDR cells incubated for 24 hrs; format: toxicity, cell-based
HeyA8-MDR = assay: Antitumor activity against human HeyA8-MDR cells xenografted in mouse assessed as tumor growth inhibition; format: functional, cell-based

Sequence of hERG (KCNH2) (Q12809 whole entry): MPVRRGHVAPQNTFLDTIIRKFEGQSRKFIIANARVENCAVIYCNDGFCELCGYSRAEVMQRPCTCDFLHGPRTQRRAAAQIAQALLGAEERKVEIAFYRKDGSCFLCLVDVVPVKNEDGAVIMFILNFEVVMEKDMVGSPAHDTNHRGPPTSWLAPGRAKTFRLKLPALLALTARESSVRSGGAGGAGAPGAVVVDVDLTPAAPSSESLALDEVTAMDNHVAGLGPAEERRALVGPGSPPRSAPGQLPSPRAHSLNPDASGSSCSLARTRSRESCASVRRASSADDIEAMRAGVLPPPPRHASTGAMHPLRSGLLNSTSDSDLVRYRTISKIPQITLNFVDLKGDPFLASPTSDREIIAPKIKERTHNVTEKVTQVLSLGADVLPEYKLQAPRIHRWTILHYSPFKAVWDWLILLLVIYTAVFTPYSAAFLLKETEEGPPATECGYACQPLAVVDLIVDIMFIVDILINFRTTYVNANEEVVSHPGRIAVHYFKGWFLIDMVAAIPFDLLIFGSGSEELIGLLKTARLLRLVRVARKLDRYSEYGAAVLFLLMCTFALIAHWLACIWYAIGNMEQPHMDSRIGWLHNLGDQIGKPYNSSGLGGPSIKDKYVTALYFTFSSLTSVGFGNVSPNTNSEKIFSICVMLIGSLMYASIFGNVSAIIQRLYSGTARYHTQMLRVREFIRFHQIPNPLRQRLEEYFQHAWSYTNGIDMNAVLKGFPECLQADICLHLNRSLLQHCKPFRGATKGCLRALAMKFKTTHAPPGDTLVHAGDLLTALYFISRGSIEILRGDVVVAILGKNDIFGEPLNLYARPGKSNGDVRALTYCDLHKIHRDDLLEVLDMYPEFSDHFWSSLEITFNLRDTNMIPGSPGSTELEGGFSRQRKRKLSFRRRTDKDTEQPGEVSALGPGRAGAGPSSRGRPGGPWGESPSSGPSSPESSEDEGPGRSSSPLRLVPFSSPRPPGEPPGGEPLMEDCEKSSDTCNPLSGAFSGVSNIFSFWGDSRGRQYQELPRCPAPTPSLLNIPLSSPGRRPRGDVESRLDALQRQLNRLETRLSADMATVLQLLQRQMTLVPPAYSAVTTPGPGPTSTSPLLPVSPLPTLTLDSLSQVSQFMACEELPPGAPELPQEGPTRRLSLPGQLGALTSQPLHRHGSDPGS

Structure (SMILES): CCCOc1ccc2nc(NC(=O)CC)[nH]c2c1
- inhibition at 1 µM (A549 [1]): 58%
- inhibition at 1 µM (NCI-H460 [2]): 46%
- inhibition at 1 µM (NCI-H1299 [3]): 64%
- half-life [4]: 18.6 h
- clearance [5]: 45.5 mL/min/kg
- Vd [6]: 6.4 L/kg
- Cmax [7]: 1560 ng/mL
- AUC [8]: 930 ng·h/mL
- bioavailability [9]: 25%

Structure (SMILES): CCCOc1ccc2nc(N)[nH]c2c1
- inhibition at 1 µM (A549 [1]): 8%
- inhibition at 1 µM (NCI-H460 [2]): 13%
- inhibition at 1 µM (NCI-H1299 [3]): 24%

Structure (SMILES): CCCOc1cc2[nH]c(NC(=O)CC)nc2cc1C
- inhibition at 1 µM (A549 [1]): 34%
- inhibition at 1 µM (NCI-H460 [2]): 40%
- inhibition at 1 µM (NCI-H1299 [3]): 26%

Structure (SMILES): CCCOc1ccc2nc(NC(=O)NC)[nH]c2c1
- inhibition at 1 µM (A549 [1]): 59%
- inhibition at 1 µM (NCI-H460 [2]): 54%
- inhibition at 1 µM (NCI-H1299 [3]): 65%
- half-life [4]: 0.25 h
- clearance [5]: 132 mL/min/kg
- Vd [6]: 2.8 L/kg
- Cmax [7]: 580 ng/mL
- AUC [8]: 590 ng·h/mL
- bioavailability [9]: 44%

Structure (SMILES): CCCOc1ccc2c(c1)nc(NC(=O)OC)n2C
- inhibition at 1 µM (A549 [1]): 23%
- inhibition at 1 µM (NCI-H460 [2]): 10%
- inhibition at 1 µM (NCI-H1299 [3]): 31%

Structure (SMILES): COC(=O)Nc1nc2cc(C(=O)c3ccccc3)ccc2[nH]1 [MEBENDAZOLE]
- inhibition at 1 µM (A549 [1]): 48%
- inhibition at 1 µM (NCI-H460 [2]): 46%
- inhibition at 1 µM (NCI-H1299 [3]): 52%

Structure (SMILES): CCCOc1ccc2nc(N(C)C(=O)OC)[nH]c2c1
- inhibition at 1 µM (A549 [1]): 0%
- inhibition at 1 µM (NCI-H460 [2]): 8%
- inhibition at 1 µM (NCI-H1299 [3]): 22%

Structure (SMILES): CCCOc1cc2[nH]c(NC(=O)CC)nc2cc1OC
- inhibition at 1 µM (A549 [1]): 10%
- inhibition at 1 µM (NCI-H460 [2]): 14%
- inhibition at 1 µM (NCI-H1299 [3]): 11%

Structure (SMILES): CCCOc1ccc2nc(NC(=O)OC)[nH]c2c1 [OXIBENDAZOLE]
- inhibition at 1 µM (A549 [1]): 58%
- inhibition at 1 µM (NCI-H460 [2]): 47%
- inhibition at 1 µM (NCI-H1299 [3]): 65%
- half-life [4]: 27 h
- clearance [5]: 350 mL/min/kg
- Vd [6]: 413 L/kg
- Cmax [7]: 10 ng/mL
- AUC [8]: 10 ng·h/mL
- bioavailability [9]: 2.6%

Structure (SMILES): COC(=O)Nc1nc2ccc(OCCCF)cc2[nH]1
- inhibition at 1 µM (A549 [1]): 28%
- inhibition at 1 µM (NCI-H460 [2]): 20%
- inhibition at 1 µM (NCI-H1299 [3]): 25%

Structure (SMILES): COC(=O)Nc1nc2cc(Sc3ccccc3)ccc2[nH]1 [FENBENDAZOLE]
- inhibition at 1 µM (A549 [1]): 44%
- inhibition at 1 µM (NCI-H460 [2]): 43%
- inhibition at 1 µM (NCI-H1299 [3]): 59%

Structure (SMILES): CCCOc1ccc2nc(NS(=O)(=O)CC)[nH]c2c1
- inhibition at 1 µM (A549 [1]): 4%
- inhibition at 1 µM (NCI-H460 [2]): 6%
- inhibition at 1 µM (NCI-H1299 [3]): 9%

Structure (SMILES): COC(=O)Nc1nc2ccc(OCCC(F)(F)F)cc2[nH]1
- inhibition at 1 µM (A549 [1]): 18%
- inhibition at 1 µM (NCI-H460 [2]): 17%
- inhibition at 1 µM (NCI-H1299 [3]): 24%

Structure (SMILES): CCCCOc1ccc2nc(NC(=O)OC)[nH]c2c1
- inhibition at 1 µM (A549 [1]): 30%
- inhibition at 1 µM (NCI-H460 [2]): 31%
- inhibition at 1 µM (NCI-H1299 [3]): 39%

Structure (SMILES): CCCOc1cc2[nH]c(NC(=O)CC)nc2cc1F
- inhibition at 1 µM (A549 [1]): 64%
- inhibition at 1 µM (NCI-H460 [2]): 63%
- inhibition at 1 µM (NCI-H1299 [3]): 62%
- half-life [4]: 0.3 h
- clearance [5]: 38.5 mL/min/kg
- Vd [6]: 0.6 L/kg
- Cmax [7]: 2760 ng/mL
- AUC [8]: 2140 ng·h/mL
- bioavailability [9]: 50%
- Activity (A549 [10]): Active
- Activity (NCI-H460 [11]): Active
- Activity (NCI-H1299 [12]): Active
- Activity (A2780): Active
- Activity (HEY A8): Active
- Activity (Vero): Non-toxic
- Activity (HFL1): Non-toxic
- Activity (L929): Non-toxic
- Activity (NIH3T3): Non-toxic
- Activity (CHO-K1): Non-toxic
- solubility [13]: 53 µM (≈ 14.1 µg/mL)
- fraction unbound [14]: 0.17
- fraction unbound [15]: 0.15
- remaining at 4 h [16]: 95%
- remaining at 4 h [17]: > 99%
- remaining at 4 h [18]: 95%
- remaining at 0.5 h [19]: 29%
- remaining at 0.5 h [20]: 2.6%
- remaining at 0.5 h [21]: 20%
- inhibition at 10 µM (hERG (KCNH2)): 29%
- Activity [22]: Non-toxic
- Activity [23]: Non-toxic
- Activity [24]: Non-toxic
- Activity [25]: Non-toxic
- TGI (HeyA8-MDR): Active

Structure (SMILES): CCCCc1ccc2[nH]c(NC(=O)OC)nc2c1 [PARBENDAZOLE]
- inhibition at 1 µM (A549 [1]): 47%
- inhibition at 1 µM (NCI-H460 [2]): 27%
- inhibition at 1 µM (NCI-H1299 [3]): 37%

Structure (SMILES): CCCOc1cc2[nH]c(NC(=O)CC)nc2cc1Cl
- inhibition at 1 µM (A549 [1]): 58%
- inhibition at 1 µM (NCI-H460 [2]): 60%
- inhibition at 1 µM (NCI-H1299 [3]): 55%

Structure (SMILES): CCOc1ccc2nc(NC(=O)OC)[nH]c2c1
- inhibition at 1 µM (A549 [1]): 25%
- inhibition at 1 µM (NCI-H460 [2]): 27%
- inhibition at 1 µM (NCI-H1299 [3]): 23%

Structure (SMILES): CC(=O)O[C@H]1C(=O)[C@@]2(C)[C@H]([C@H](OC(=O)c3ccccc3)[C@]3(O)C[C@H](OC(=O)[C@H](O)[C@@H](NC(=O)c4ccccc4)c4ccccc4)C(C)=C1C3(C)C)[C@]1(OC(C)=O)CO[C@@H]1C[C@@H]2O [PACLITAXEL]
- inhibition at 1 µM (A549 [1]): 74%
- inhibition at 1 µM (NCI-H460 [2]): 63%
- inhibition at 1 µM (NCI-H1299 [3]): 73%

Structure (SMILES): CCCOc1ccc2nc(NC(=O)OC)n(C)c2c1
- inhibition at 1 µM (A549 [1]): 10%
- inhibition at 1 µM (NCI-H460 [2]): 10%
- inhibition at 1 µM (NCI-H1299 [3]): 19%
